This note sets out measurements from publication PMC6344862, “Hexameric assembly of the AAA+ protein McrB is necessary for GTPase activity” (Nucleic Acids Research, 2018).

For assay [1], the target named is McrB (Escherichia coli, UniProt P15005, E280Q). Briefly: SEC-MALS, hexamer with nucleotide. It is filed as binding. The conditions noted are these: 18 uM protein. On the technique in general: SEC sorts molecules by how far they enter the pores of the column.
Assay [2] concerns the target McrB (Escherichia coli, UniProt P15005, E280A). As to the kind of experiment: SEC-MALS, hexamer with nucleotide. Type of assay: binding. The following applies: 18 uM protein.
Assay [3] addresses T1, McrBC (Escherichia coli, UniProt P15005).
T1 construct: gene mcrB; full-length McrB with C-terminal Gly-Ser-His6 plus untagged McrC, mixed 4:1 or SEC-purified complex; tetradecamer 734 kDa; with Type IV methyl-directed restriction enzyme EcoKMcrBC (5-methylcytosine-specific restriction enzyme subunit McrC)
Briefly: steady-state intrinsic tryptophan fluorescence. Type of assay: binding. The following applies: 0.5 uM McrB, 0.125 uM McrC, 1 mM nucleotide, 5 mM MgCl2, pH 8, 25 C.

For assay [4], the target named is T2, McrBΔN (Escherichia coli, UniProt P15005).
T2 construct: gene mcrB; C-terminal Gly-Ser-His6 tag (untagged version for SAXS)
Briefly: malachite green GTPase; SEC and SEC-MALS oligomerisation. It is filed as biochemical. The conditions noted are these: 1 mM GTP, 15 mM MgCl2, 50 mM KCl, pH 8, 37 C.

In assay [5] the target is T3, McrB (Escherichia coli, UniProt P15005). Briefly: steady-state intrinsic tryptophan fluorescence. The following applies: 0.5 uM McrB, 1 mM nucleotide, 5 mM MgCl2, pH 8, 25 C. It is filed as binding.
Assay [6] concerns the target T4, McrBΔNC (Escherichia coli, UniProt P15005).
T4 construct: gene mcrB; McrB residues 162-460 (without His6 tag for SEC-MALS and SAXS) plus untagged McrC; tetradecamer 500 kDa; with Type IV methyl-directed restriction enzyme EcoKMcrBC (5-methylcytosine-specific restriction enzyme subunit McrC)
Briefly: SAXS of nucleotide-dependent tetradecamer. It is filed as binding. The following applies: 1 mg/ml protein.

For assay [7], the target named is T2, McrBΔN. Briefly: SAXS of nucleotide-dependent hexamer. Type of assay: binding. The conditions noted are these: McrBΔN without His-tag, 1 mg/ml.
In assay [8] the target is T2, McrBΔN. Briefly: electron cryomicroscopy 2D class averages, hexamer. Type of assay: binding. The following applies: 1 mM GDPNP, 1 mM MgCl2, pH 7.4.
In assay [9] the target is T2, McrBΔN. As to the kind of experiment: SEC, nucleotide-induced oligomerisation. The conditions noted are these: 18 uM protein, MgCl2, pH 8. Type of assay: binding.
The target in assay [10] is T3, McrB. As to the kind of experiment: SEC, nucleotide-induced oligomerisation. Type of assay: binding. The conditions noted are these: 18 uM protein, MgCl2, pH 8.
Assay [11] addresses McrBΔN^WT (McrBΔN without His6 tag) (Escherichia coli K12) (UniProt P15005). Briefly: SAXS; 1 mg/ml protein in buffer B100 with GTPγS, 15°C, beamline B21 Diamond; mass by SAXSMoW2.
The target in assay [12] is McrB (full length, C-terminal His6) (Escherichia coli K12) (UniProt P15005). As to the kind of experiment: SEC-MALS; Superose 6 10/300, 0.5 ml/min, 10 mM Tris-Cl pH 7.4, 100 mM NaCl, 1 mM MgCl2, 1 mM DTT, 0.1 mM GTP; McrBC and McrBΔNC complexes run at 0.6 mg/ml.
The target in assay [13] is McrBΔN^WT (McrBΔN without His6 tag) (Escherichia coli K12) (UniProt P15005). The description is as above.

`Nc1nc2c(ncn2[C@@H]2O[C@H](COP(=O)(O)OP(=O)(O)OP(=O)(O)O)[C@@H](O)[C@H]2O)c(=O)[nH]1` [GTP]: the “SEC-MALS, hexamer with nucleotide” value in [1] and in assay [2] was “had a mass comparable to wild type McrB hexamer in presence of GTP or GDP” each time. Moreover, the values for the Trp fluorescence increase in [3] (GTP hydrolysed by this complex) and in [5] (weak GTPase without McrC) were ~ 15% and ~ 20%, respectively. For the same molecule, the “malachite green GTPase; SEC and SEC-MALS oligomerisation” value in assay [4] is “only a weak GTPase activity for both McrB (Figure 5A) and McrBΔN”.
Consider `Nc1nc2c(ncn2[C@@H]2O[C@H](COP(=O)(O)OP(=O)(O)OP(O)(O)=S)[C@@H](O)[C@H]2O)c(=O)[nH]1` [GTPγS], for which the “SAXS of nucleotide-dependent tetradecamer” value in assay [6] is “Good quality data was collected for McrBΔN and McrBΔNC in presence of the non-hydrolysable analogue GTPγS”. Also, in assay [7], the “SAXS of nucleotide-dependent hexamer” value was “Good quality data was collected for McrBΔN and McrBΔNC in presence of the non-hydrolysable analogue GTPγS”. For the same molecule, the Trp fluorescence increase in assay [3] is ~ 23%; in [5] it was ~ 30%.
In the case of `Nc1nc2c(ncn2[C@@H]2O[C@H](COP(=O)(O)OP(=O)(O)NP(=O)(O)O)[C@@H](O)[C@H]2O)c(=O)[nH]1` [GDPNP], the “electron cryomicroscopy 2D class averages, hexamer” value in assay [8] is “Imaging of McrB or McrBΔN after the addition of GDPNP showed round particles”. Moreover, the Trp fluorescence increase is reported as ~ 15% in assay [3] and ~ 20% in assay [5].
For the molecule `Nc1nc2c(ncn2[C@@H]2O[C@H](COP(=O)(O)OP(=O)(O)O)[C@@H](O)[C@H]2O)c(=O)[nH]1` [GDP], the “SEC-MALS, hexamer with nucleotide” value in assay [1] and in assay [2] was “had a mass comparable to wild type McrB hexamer in presence of GTP or GDP” each time. Besides, the “SEC, nucleotide-induced oligomerisation” value in assay [9] was “In presence of GTP or GDP, McrB and McrBΔN eluted as a high molecular mass oligomer”; in [10], “In presence of GTP or GDP, McrB and McrBΔN eluted as a high molecular mass oligomer”.

B1: McrC (natural protein)
chain: MEQPVIPVRNIYYMLTYAWGYLQEIKQANLEAIPGNNLLDILGYVLNKGVLQLSRRGLELDYNPNTEIIPGIKGRIEFAKTIRGFHLNHGKTVSTFDMLNEDTLANRIIKSTLAILIKHEKLNSTIRDEARSLYRKLPGISTLHLTPQHFSYLNGGKNTRYYKFVISVCKFIVNNSIPGQNKGHYRFYDFERNEKEMSLLYQKFLYEFCRRELTSANTTRSYLKWDASSISDQSLNLLPRMETDITIRSSEKILIVDAKYYKSIFSRRMGTEKFHSQNLYQLMNYLWSLKPENGENIGGLLIYPHVDTAVKHRYKINGFDIGLCTVNLGQEWPCIHQELLDIFDEYLK
For the molecule B1, the copies of McrB in the complex in assay [11], in assay [12] and in assay [13] was 12 in each case. Besides, the copies of McrC in the complex in assay [11], in assay [12] and in [13] was 2 in each case.
